Article PMC7606612, “Identification of HMGA2 inhibitors by AlphaScreen-based ultra-high-throughput screening assays” (Scientific Reports, 2020)

Experiments:
[1] = molecular target: “AT-hook” peptide 3 (ATHP3) (Homo sapiens, UniProt P52926); assay: Isothermal titration calorimetry (ITC), titration into ATHP3; assay type: binding
Description: (§1) ITC experiments were conducted using a VP-ITC titration calorimeter (MicroCal, Inc., Northampton, MA) interfaced to a PC. Origin 7.0, supplied by the manufacturer was used for data acquisition. […] The heat liberated or absorbed is observed as a peak corresponding to the power required keeping the sample and reference cells at identical temperatures. The peak produced during the injection is converted to heat output by integration and corrected for cell volume and sample concentration. […] The net enthalpy for the titration reaction was determined by subtraction of the component heats of dilution.

[2] = tested on: BTSC#30p; assay: Light microscopy of morphology / differentiation, BTSC#30p; assay type: cell-based; conditions: 100 µM and 200 µM, 6 days
[3] = tested on: BTSC#30p; assay: Western blotting and qRT-PCR expression analysis, BTSC#30p; assay type: cell-based
Description: The single-cell suspension was obtained by mechanical disaggregation of the spheres and total proteins were extracted 48 h later, as previously described. After separation by SDS–polyacrylamide gel electrophoresis, proteins were blotted on nitrocellulose membranes (GE Healthcare Europe Gmb) and hybridized with the following antibodies: anti-HMGA1, anti-HMGA2 (Genetex) or affinity-purified anti-HMGA2, anti-α-actin (SantaCruz Biotechnologies). The single-cell suspension was obtained by mechanical disaggregation of the spheres and RNA was extracted 48 h later, by using Direct-zol RNA MiniPrep (Zymo Research). One μg of RNA was retrotranscribed, by using QuantiTect® Reverse Transcription Kit (Qiagen) and qRT-PCR was performed as described. The 2^–ΔΔCt formula was used to calculate the differential gene expression.

[4] = tested on: human epidermoid carcinoma cell line, A431; assay: Cytotoxicity / cell viability assay (ATPlite); assay type: cell-based; conditions: human A-431 cells, 48 h
Description: In this study, we also developed a LANCE time-resolved fluorescence energy transfer (TR-FRET) assay as a secondary assay for our screening. The His-tagged HMGA2 and biotinylated oligomer FL814 were linked to Europium-labeled anti-6 × His antibody and APC-labeled streptavidin, respectively. A series of DNA binding studies were performed to determine the optimal conditions for the secondary Assay (Fig. S2). After these experiments, 12.5 nM of FL814 and 62.5 nM of HMGA2 were chosen for the assay, which is the same for the primary assay. The assay tolerated up to 0.25% DMSO without any significant change in signal (Fig. S2c). For a counterscreen assay to exclude those compounds that nonspecifically bind to the protein surface, an AlphaScreen assay of H4 peptide binding to bromodomain-containing protein 4 (BRD4) was adopted (Fig. S2e). Since we are looking for compounds with anti-metastasis or anti-obesity activities, compounds with high levels of cytotoxicity are undesirable. […]
A-431 cells were grown in media (DMEM + 10% FBS + 1 × Penicillin/Streptomycin + 2 mM L-glutamine) at 37 °C in a humidified incubator with 5% CO2 to 70% confluency. […] After 10 min the plates were read using a Perkin Elmer Viewlux multimode plate reader in luminescence mode.

[5] = molecular target: T1, HMGA2-DNA interactions (Mus musculus, UniProt P52927); assay: Protein-DNA interaction ELISA (PDI-ELISA) assay; assay type: binding, mammalian; conditions: inhibition of HMGA2-DNA interactions, PDI-ELISA
T1 construct: made in house
T1 sequence (P52927 2-108 limits assumed): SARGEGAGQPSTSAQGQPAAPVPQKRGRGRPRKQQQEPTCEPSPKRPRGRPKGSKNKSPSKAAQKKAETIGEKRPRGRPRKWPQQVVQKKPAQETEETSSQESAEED
Excerpt: The PDI-ELSA assays were described previously[33] and used to determine the inhibition IC50 against HMGA2-DNA interactions. The apparent inhibitory IC50 values were obtained using the following equation: y=min+(max-min/1+10^((x-logIC50)×Hillslope) , where x, y, max, and min represent the inhibitor’s concentration, the inhibition level, the maximum inhibition value, and the minimum inhibition value, respectively.

[6] = molecular target: T2, HMGA2 (Mus musculus, UniProt P52927); assay: Isothermal titration calorimetry (ITC), titration into HMGA2; assay type: binding, mammalian; conditions: for HMGA2 Binding site: number of sites
T2 construct: made in house
T2 sequence (P52927 2-108 limits assumed): T1 sequence (P52927 2-108 limits assumed)
Description: as §1

[7] = tested on: BTSC#83; assay: Light microscopy of morphology / differentiation, BTSC#83; assay type: cell-based; conditions: 100 µM and 200 µM, 6 days

With `Cc1ccc(C(=O)Nc2ccc(S(=O)(=O)O)c3cc(S(=O)(=O)O)cc(S(=O)(=O)O)c23)cc1NC(=O)c1cccc(NC(=O)Nc2cccc(C(=O)Nc3cc(C(=O)Nc4ccc(S(=O)(=O)O)c5cc(S(=O)(=O)O)cc(S(=O)(=O)O)c45)ccc3C)c2)c1` [suramin] the “− TΔS” value [1] was 6.75 kcal/mol, the Kd ([1]; first line, read-out: ATHP3 Ka (M^−1) (converted)) was 24.6 nM and the “ATHP3 Binding site” value ([1]; number of sites, first line) was 0.98. For the same compound, the “cell morphology / induction of differentiation” value [2] was “acquire flat epithelial morphology”, the ID2 expression ([3]; 100 μM for 48 h) was “induces reduction in ID2 expression” and the “expression of HMGA1” value ([3]; Western blotting and qRT-PCR) was “slightly reduced”. The “expression of HMGA2” value ([3]; Western blotting and qRT-PCR) was “slightly reduced”, the “expression of SNAIL” value ([3]; qRT-PCR, 100 µM for 48 h) was “significantly reduced” and the “expression of ID2” value ([3]; qRT-PCR, 100 µM for 9 days) was “significantly reduced”. The “expression of MSI1” value ([3]; qRT-PCR, 100 µM for 9 days) was “significantly reduced”, the “expression of OLIG2” value ([3]; qRT-PCR, 100 µM for 9 days) was “increased” and the cytotoxicity [4] was “not cytotoxic”. The IC50 [5] was 2780 ± 100 nM, the “–TΔS” value ([6]; first type of binding sites) was 5.56 kcal/mol and the “HMGA2 Binding site” value ([6]; first type) was “three”. For the same compound, the “HMGA2 Binding site” value ([6]; first type, listed as Suramin) was 2.81, the “HMGA2 Binding site” value ([6]; second type) was “two” and the “HMGA2 Binding site” value ([6]; second type, listed as Suramin) was 2. For the same compound, the “− TΔS” value ([6]; second type of binding sites) was 0.24 kcal/mol, the Kd ([6]; second type of binding sites, read-out: HMGA2 Ka (M^−1) (converted)) was 23000 nM and the “total of suramin binding sites on HMGA2” value ([6]; two types, confirmed by mass spectrometry) was “five”. The “cell morphology / induction of differentiation” value [7] was “adhere to the bottom of the well and extend neurite-like structures”.
